In article PMC6974524 (Frontiers in Microbiology, 2020):
In brackets after ≈: the same amount, converted by molar mass.

Experiments:
Mtb-KD = type: cell-based, Mycobacterium tuberculosis
clinical Mtb strains = assay: microbe, parasite or virus in culture; type: cell-based, Mycobacterium tuberculosis; details: Mycobacterium tuberculosis; range over standard and clinical strains (abstract); read-out: MIC for the standard and clinical drug-resistant Mtb strains

| SMILES | MIC, ddlA knocked-down (Mtb-KD) [µg/mL] | MIC, ddlA overexpressed (Mtb-KD) [µg/mL] | MIC (clinical Mtb strains) [µg/mL] |
| --- | --- | --- | --- |
| N[C@@H]1CON=C1O [DCS, D-cycloserine, reference compound] | 1 (≈ 9.79 µM) | 32 (≈ 313 µM) | – |
| OC1(c2ccc(OC(F)F)cc2)C[N+](c2ccccc2)=C2CCCCN21 (centres unmarked) [IMB-0283] | 0.25 | 2 | 0.25 to 4 |
